Assay results reported in PMC9403976, “Elucidating the path to Plasmodium prolyl-tRNA synthetase inhibitors that overcome halofuginone resistance” (Nature Communications, 2022).
Values joined by “and” are separate entries in the source; they are usually repeats but may differ in a detail not shown here. Equal entries are not always repeated. Where two headings read alike, the source gives them in different places. Marks after values point to notes of the source that are not given here.

Tests used:
P. falciparum Dd2-2D4 = experiment: P. falciparum asexual blood stage (ABS) growth assay, SYBR Green, 72 h, wild-type parasites; format: cell-based, Plasmodium falciparum; settings: for EC50: Plasmodium falciparum
[1] = test system: halofuginone-induced P. falciparum (elevated proline homeostasis); experiment: P. falciparum ABS growth assay, SYBR Green, 72 h, halofuginone-induced parasites; format: cell-based, Plasmodium falciparum; settings: for EC50: Plasmodium falciparum, DD2
Summary of the method: (§1)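 Dd2-derived P. falciparum lines (HFGR-I, halofuginone-induced) at 1% parasitemia and 1% hematocrit in RPMI + 0.5% Albumax were exposed to compounds in triplicate dose-response for 72 h. Growth was read as SYBR Green 1 fluorescence, with 10 μM dihydroartemisinin as kill control and compound-free wells as growth control.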

[2] = test system: HFGR-I P. falciparum (elevated proline homeostasis and PfcProRS^L482H); experiment: P. falciparum ABS growth assay, SYBR Green, 72 h, HFGR-I parasites; format: cell-based, Plasmodium falciparum; settings: for EC50: Plasmodium falciparum, DD2
Summary of the method: as §1

PfcProRS = target: T1, PfcProRS (Plasmodium falciparum, UniProt Q8I5R7); format: binding; settings: for Normalized response, dose-response replicates (SI Fig 14): replicates 1-3
T1 construct: made in house; host or cells: E. coli SoluBL-21
T1 sequence (Q8I5R7 249-746): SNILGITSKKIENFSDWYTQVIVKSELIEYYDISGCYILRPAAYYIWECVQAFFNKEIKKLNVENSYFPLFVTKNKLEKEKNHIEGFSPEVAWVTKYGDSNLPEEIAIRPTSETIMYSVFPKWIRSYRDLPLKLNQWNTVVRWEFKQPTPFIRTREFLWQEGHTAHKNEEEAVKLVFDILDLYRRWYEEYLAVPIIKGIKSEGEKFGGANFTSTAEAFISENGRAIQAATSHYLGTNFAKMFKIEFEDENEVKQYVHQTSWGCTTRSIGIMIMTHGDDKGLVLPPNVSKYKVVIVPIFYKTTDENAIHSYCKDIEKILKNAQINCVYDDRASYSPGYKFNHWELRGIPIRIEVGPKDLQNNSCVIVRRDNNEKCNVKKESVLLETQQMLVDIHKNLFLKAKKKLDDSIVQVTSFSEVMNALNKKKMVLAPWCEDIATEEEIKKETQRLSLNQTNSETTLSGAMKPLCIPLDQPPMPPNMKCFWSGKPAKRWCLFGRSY

HsProRS = HsProRS (Homo sapiens, UniProt P07814); experiment: TR-FRET ligand displacement assay with tracer MAT379 (CoraFluor-1-Halo and anti-His6 antibody formats); format: binding; design: made in house; host or cells: E. coli SoluBL-21; settings: for normalized TR-FRET signal (dose-response replicates): SI Fig 15, listed as Glyburide (28)
HsProRS, sequence (P07814 996-1512): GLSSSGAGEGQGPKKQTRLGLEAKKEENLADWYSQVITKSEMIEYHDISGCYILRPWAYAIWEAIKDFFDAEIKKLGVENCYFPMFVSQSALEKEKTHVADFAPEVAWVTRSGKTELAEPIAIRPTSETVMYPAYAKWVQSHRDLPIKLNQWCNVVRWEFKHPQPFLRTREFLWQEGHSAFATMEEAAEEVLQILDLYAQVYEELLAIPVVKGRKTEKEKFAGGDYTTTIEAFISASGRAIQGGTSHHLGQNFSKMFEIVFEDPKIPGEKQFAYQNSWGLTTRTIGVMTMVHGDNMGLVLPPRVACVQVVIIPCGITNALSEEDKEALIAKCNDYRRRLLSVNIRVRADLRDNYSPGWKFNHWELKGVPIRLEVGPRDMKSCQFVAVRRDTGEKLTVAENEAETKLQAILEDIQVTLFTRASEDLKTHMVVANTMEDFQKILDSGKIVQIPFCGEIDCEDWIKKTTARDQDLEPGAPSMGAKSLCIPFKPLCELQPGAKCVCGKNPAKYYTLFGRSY

[3] = 10 μM, compound had <50% inhibition
[4] = HsProRS (KD [nM]) + proline, 100 μM proline, 250 nM MAT379
[5] = HsProRS (KD [nM]) −, absence of substrates, 250 nM MAT379

## O=C(NC1Cc2ccccc2C1)c1nccnc1NC(=O)N1CCC(NC(=O)[C@@H]2CCCN2)CC1 [MAT334]
P. falciparum Dd2-2D4; [3]
  percent growth at 10 μM, Dd2 wt: 76%^b
P. falciparum Dd2-2D4; wildtype (Dd2-2D4), bound given in μM, read-out: Dd2 EC50 wildtype (Dd2-2D4), bound
  EC50: > 10 µM
P. falciparum Dd2-2D4; wildtype (Dd2-2D4), 10 μM
  % signal at 10 μM, wildtype (Dd2-2D4): 75.7%
[1]; [3]
  percent growth at 10 μM, Dd2 Halofuginone-induced: 59%^b
[1]; halofuginone-induced, bound given in μM, read-out: Dd2 EC50 halofuginone-induced, bound
  EC50: > 10 µM
[1]; halofuginone-induced, 10 μM
  % signal at 10 μM, halofuginone-induced: 58.7%
[1]; vs wild-type Dd2-2D4
  fold decreased activity in halofuginone-induced and HFGR-I parasites: 20-to-40 fold
[2]; [3]
  percent growth at 10 μM, Dd2 HFGR-I: 66%^b
[2]; HFGR1, 10 μM
  % signal at 10 μM, HFGR1: 66.0%
[2]; HFGR1, bound given in μM, read-out: Dd2 EC50 HFGR1, bound
  EC50: > 10 µM
PfcProRS; Log[inhibitor] (M) -5.000, listed as MAT334 (29)
  Normalized response, dose-response replicates (SI Fig 14): 2.08E-01 and 3.63E-01 and 3.19E-01
PfcProRS; Log[inhibitor] (M) -5.301, listed as MAT334 (29)
  Normalized response, dose-response replicates (SI Fig 14): 5.18E-01 and 3.74E-01 and 4.21E-01
PfcProRS; Log[inhibitor] (M) -5.601, listed as MAT334 (29)
  Normalized response, dose-response replicates (SI Fig 14): 6.67E-01 and 7.40E-01 and 6.08E-01
PfcProRS; Log[inhibitor] (M) -5.904, listed as MAT334 (29)
  Normalized response, dose-response replicates (SI Fig 14): 7.68E-01 and 7.75E-01 and 6.45E-01
PfcProRS; Log[inhibitor] (M) -6.208, listed as MAT334 (29)
  Normalized response, dose-response replicates (SI Fig 14): 8.81E-01 and 8.94E-01 and 8.19E-01
PfcProRS; Log[inhibitor] (M) -6.509, listed as MAT334 (29)
  Normalized response, dose-response replicates (SI Fig 14): 8.78E-01 and 9.77E-01 and 9.06E-01
PfcProRS; Log[inhibitor] (M) -6.796, listed as MAT334 (29)
  Normalized response, dose-response replicates (SI Fig 14): 9.44E-01 and 9.68E-01 and 8.61E-01
PfcProRS; Log[inhibitor] (M) -7.108, listed as MAT334 (29)
  Normalized response, dose-response replicates (SI Fig 14): 1.02E+00 and 1.01E+00 and 1.00E+00
PfcProRS; Log[inhibitor] (M) -7.409, listed as MAT334 (29)
  Normalized response, dose-response replicates (SI Fig 14): 9.75E-01 and 1.05E+00 and 9.17E-01
PfcProRS; Log[inhibitor] (M) -7.710, listed as MAT334 (29)
  Normalized response, dose-response replicates (SI Fig 14): 9.99E-01 and 1.04E+00 and 9.29E-01
PfcProRS; Log[inhibitor] (M) -8.000, listed as MAT334 (29)
  Normalized response, dose-response replicates (SI Fig 14): 9.48E-01 and 9.82E-01 and 1.03E+00
PfcProRS; Log[inhibitor] (M) -8.301, listed as MAT334 (29)
  Normalized response, dose-response replicates (SI Fig 14): 1.01E+00 and 1.09E+00 and 9.01E-01
PfcProRS; Log[inhibitor] (M) -8.602, listed as MAT334 (29)
  Normalized response, dose-response replicates (SI Fig 14): 8.97E-01 (2×) and 1.09E+00
PfcProRS; Log[inhibitor] (M) -9.000, listed as MAT334 (29)
  Normalized response, dose-response replicates (SI Fig 14): 9.02E-01 and 9.67E-01 and 1.03E+00
PfcProRS; Log[inhibitor] (M) -9.301, listed as MAT334 (29)
  Normalized response, dose-response replicates (SI Fig 14): 8.06E-01 and 9.62E-01 and 9.06E-01
PfcProRS; SI Fig 16a, values on -log scale
  PfcProRS -- best Kd: 6.180
HsProRS; [4]
  Kd: 2130 nM
HsProRS; [5]
  Kd: 2110 nM

## COc1ccc(Cl)cc1C(=O)NCCc1ccc(S(=O)(=O)NC(=O)NC2CCCCC2)cc1 [Glyburide, reference compound]
P. falciparum Dd2-2D4; DD2, SI Fig 16b, values on -log scale, read-out: ABS - Dd2-2D4 (converted)
  EC50: 75.7 µM
P. falciparum Dd2-2D4; wild-type Dd2-2D4 ABS parasites, 72 h, read-out: Dd2 (EC50 [nM]) wt
  EC50: 75.6 µM
[1]; halofuginone-induced ABS parasites, 72 h, read-out: Dd2 (EC50 [nM]) Halofuginone-induced
  EC50: 73.6 µM
[2]; HFGR-I ABS parasites, 72 h, read-out: Dd2 (EC50 [nM]) HFGR-I
  EC50: 69.6 µM
PfcProRS
  binding mode with respect to substrates (ATP, proline): ATP- and proline-competitive
  selectivity for PfcProRS over HsProRS: > 30 fold
PfcProRS; Log[inhibitor] (M) -4.000, listed as Glyburide (28)
  Normalized response, dose-response replicates (SI Fig 14): 9.02E-01 and 9.90E-01 and 8.86E-01
PfcProRS; Log[inhibitor] (M) -4.301, listed as Glyburide (28)
  Normalized response, dose-response replicates (SI Fig 14): 1.05E+00 and 1.04E+00 and 1.16E+00
PfcProRS; Log[inhibitor] (M) -4.601, listed as Glyburide (28)
  Normalized response, dose-response replicates (SI Fig 14): 1.10E+00 and 1.11E+00 and 1.09E+00
PfcProRS; Log[inhibitor] (M) -4.904, listed as Glyburide (28)
  Normalized response, dose-response replicates (SI Fig 14): 1.18E+00 and 1.08E+00 and 1.07E+00
PfcProRS; Log[inhibitor] (M) -5.208, listed as Glyburide (28)
  Normalized response, dose-response replicates (SI Fig 14): 9.30E-01 and 1.21E+00 and 1.10E+00
PfcProRS; Log[inhibitor] (M) -5.509, listed as Glyburide (28)
  Normalized response, dose-response replicates (SI Fig 14): 1.06E+00 and 9.98E-01 and 1.05E+00
PfcProRS; Log[inhibitor] (M) -5.796, listed as Glyburide (28)
  Normalized response, dose-response replicates (SI Fig 14): 9.95E-01 and 9.65E-01 and 1.02E+00
PfcProRS; Log[inhibitor] (M) -6.108, listed as Glyburide (28)
  Normalized response, dose-response replicates (SI Fig 14): 9.29E-01 and 8.37E-01 and 1.06E+00
PfcProRS; Log[inhibitor] (M) -6.409, listed as Glyburide (28)
  Normalized response, dose-response replicates (SI Fig 14): 9.49E-01 and 9.10E-01 and 8.70E-01
PfcProRS; Log[inhibitor] (M) -6.710, listed as Glyburide (28)
  Normalized response, dose-response replicates (SI Fig 14): 9.85E-01 and 9.81E-01 and 9.34E-01
PfcProRS; Log[inhibitor] (M) -7.000, listed as Glyburide (28)
  Normalized response, dose-response replicates (SI Fig 14): 1.05E+00 (2×) and 1.07E+00
PfcProRS; Log[inhibitor] (M) -7.301, listed as Glyburide (28)
  Normalized response, dose-response replicates (SI Fig 14): 1.02E+00 and 9.36E-01 and 1.04E+00
PfcProRS; Log[inhibitor] (M) -7.602, listed as Glyburide (28)
  Normalized response, dose-response replicates (SI Fig 14): 8.75E-01 and 9.05E-01 and 1.01E+00
PfcProRS; Log[inhibitor] (M) -8.000, listed as Glyburide (28)
  Normalized response, dose-response replicates (SI Fig 14): 1.03E+00 and 1.08E+00 and 9.17E-01
PfcProRS; Log[inhibitor] (M) -8.301, listed as Glyburide (28)
  Normalized response, dose-response replicates (SI Fig 14): 1.03E+00 and 8.92E-01 and 1.05E+00
HsProRS; + 100 μM proline, 100 μM
  HsProRS % signal at 100 μM, + 100 μM proline: 92.6%
HsProRS; HsProRS (KD [nM]) + ATP, 500 μM ATP, 250 nM MAT379
  Kd: 30900 nM
HsProRS; [4]
  Kd: > 50000 nM
HsProRS; [5]
  Kd: 73900 nM
HsProRS; HsProRS KD + 100 μM proline, bound, + 100 μM proline, bound given in μM
  Kd: > 50900 nM
HsProRS; Log[inhibitor] (M) -3.99976
  normalized TR-FRET signal (dose-response replicates): 4.60E-01 and 4.45E-01 and 5.24E-01
HsProRS; Log[inhibitor] (M) -4.3009
  normalized TR-FRET signal (dose-response replicates): 6.36E-01 and 5.89E-01 and 6.44E-01
HsProRS; Log[inhibitor] (M) -4.60199
  normalized TR-FRET signal (dose-response replicates): 8.28E-01 and 7.19E-01 and 8.15E-01
HsProRS; Log[inhibitor] (M) -4.90248
  normalized TR-FRET signal (dose-response replicates): 9.22E-01 and 9.13E-01 and 9.32E-01
HsProRS; Log[inhibitor] (M) -5.20323
  normalized TR-FRET signal (dose-response replicates): 1.00E+00 and 9.33E-01 (2×)
HsProRS; Log[inhibitor] (M) -5.51347
  normalized TR-FRET signal (dose-response replicates): 9.75E-01 (2×) and 1.00E+00
HsProRS; Log[inhibitor] (M) -5.79595
  normalized TR-FRET signal (dose-response replicates): 7.95E-01 and 8.60E-01 and 9.98E-01
HsProRS; Log[inhibitor] (M) -6.10794
  normalized TR-FRET signal (dose-response replicates): 8.65E-01 and 8.44E-01 and 8.55E-01
HsProRS; Log[inhibitor] (M) -6.40526
  normalized TR-FRET signal (dose-response replicates): 9.62E-01 and 9.85E-01 and 1.00E+00
HsProRS; Log[inhibitor] (M) -6.7137
  normalized TR-FRET signal (dose-response replicates): 9.69E-01 and 9.06E-01 and 9.96E-01
HsProRS; Log[inhibitor] (M) -7
  normalized TR-FRET signal (dose-response replicates): 8.09E-01 and 8.06E-01 and 9.15E-01
HsProRS; Log[inhibitor] (M) -7.331
  normalized TR-FRET signal (dose-response replicates): 8.96E-01 and 8.92E-01 and 9.69E-01
HsProRS; Log[inhibitor] (M) -7.57403
  normalized TR-FRET signal (dose-response replicates): 9.06E-01 and 7.74E-01 and 8.73E-01
HsProRS; Log[inhibitor] (M) -7.87506
  normalized TR-FRET signal (dose-response replicates): 6.90E-01 and 8.76E-01 and 8.40E-01
HsProRS; Log[inhibitor] (M) -8.17609
  normalized TR-FRET signal (dose-response replicates): 9.01E-01 and 9.35E-01 and 9.12E-01
